The values below come from ChEMBL document CHEMBL1136320, “Substrate properties of C5-substituted pyrimidine 2'-deoxynucleoside 5'-triphosphates for thermostable DNA polymerases during PCR” (Bioorg Med Chem Lett, 2003).

Assay [1] has as its system Nucleic Acid. The assay is described as follows: Amount of full-length DNA product formed using polymerase B Pfu. The assay is classed as nucleic-acid assay.
For assay [2], the system named is Nucleic Acid. The assay is described as follows: Amount of full-length DNA product formed using polymerase B Deep vent (exo). In kind it is nucleic-acid assay.
Assay [3] deals with Nucleic Acid. As to the kind of experiment: Amount of full-length DNA product formed using Taq polymerase; No product detected. The assay is classed as functional.
The test system of assay [4] is Nucleic Acid. The assay is described as follows: Amount of full-length DNA product formed using polymerase B Pwo. In kind it is nucleic-acid assay.
Assay [5] concerns Nucleic Acid. As to the kind of experiment: Amount of full-length DNA product formed using polymerase A Thermo Sequenase; No product detected. The assay is classed as nucleic-acid assay.
Assay [6] concerns Nucleic Acid. The assay is described as follows: Amount of full-length DNA product formed using polymerase B Vent (exo); range is 35-70%. The assay is classed as nucleic-acid assay.
For assay [7], the system named is Nucleic Acid. As to the kind of experiment: Amount of full-length DNA product formed using polymerase A Tth; No product detected. The assay is classed as nucleic-acid assay.
For assay [8], the system named is Nucleic Acid. The assay is described as follows: Amount of full-length DNA product formed using polymerase B Vent (exo); No product detected. The assay is classed as nucleic-acid assay.
Assay [9] has as its system Nucleic Acid. The assay is described as follows: Amount of full-length DNA product formed using polymerase B Deep vent (exo); No product detected. The assay is classed as nucleic-acid assay.
Assay [10] concerns Nucleic Acid. The assay is described as follows: Amount of full-length DNA product formed using polymerase B Pwo; No product detected. The assay is classed as nucleic-acid assay.
Assay [11] relates to Nucleic Acid. The assay is described as follows: Amount of full-length DNA product formed using polymerase B Pfu; No product detected. The assay is classed as nucleic-acid assay.
Assay [12] concerns Nucleic Acid. The assay is described as follows: Amount of full-length DNA product formed using polymerase B Pwo; range is 35-70%. In kind it is nucleic-acid assay.

Bounds are passed on as bounds.

In the case of `NCCOCCOCc1cn(C2CC(O)C(COP(=O)(O)OP(=O)(O)OP(=O)(O)O)O2)c(=O)[nH]c1=O` (stereo unspecified), the Activity was under 35% with Nucleic Acid [1]; under 35% in the assay with Nucleic Acid [2]; “Not detected” with Nucleic Acid [3]; under 35% in the assay with Nucleic Acid [4]; “Not detected” with Nucleic Acid [5]; 35% in the assay with Nucleic Acid [6]. Also, the Activity entry with Nucleic Acid [7] was “Not detected”.

Turning to `CC#Cc1cn(C2CC(O)C(COP(=O)(O)OP(=O)(O)OP(=O)(O)O)O2)c(=O)nc1N` (stereo unspecified), the Activity entry in the assay with Nucleic Acid [8], in the assay with Nucleic Acid [3], in the assay with Nucleic Acid [9], in the assay on Nucleic Acid [10], in the assay with Nucleic Acid [5] and in the assay on Nucleic Acid [11] was “Not detected” in each case. The Activity result in the assay on Nucleic Acid [7] was “Not detected”.

As for `NCCOCCOCc1cn(C2CC(O)C(COP(=O)(O)OP(=O)(O)OP(=O)(O)O)O2)c(=O)nc1N` (stereo unspecified), the Activity in the assay on Nucleic Acid [1] was under 35%; in the assay with Nucleic Acid [2] it was under 35%; in the assay with Nucleic Acid [3], “Not detected”; in the assay with Nucleic Acid [12] it was 35%; with Nucleic Acid [5], “Not detected”; in the assay on Nucleic Acid [6], 35%. Further, the Activity result in the assay with Nucleic Acid [7] is “Not detected”.
